The conditions of assay [1]: 25° C.; previously reported studies; cited from earlier work.
The conditions of assay [2]: NaCl; 25° C.; previously reported studies; cited from earlier work.
Assay [3] in a line: Surface plasmon resonance on LMWH-modified streptavidin chip. Format: binding. The method, then: (§1) Heparin-sepharose affinity liquid chromatography was performed on an ÄKTA Explorer FPLC equipped with a HiTrap Heparin HP column (5 ml, ˜10 mg heparin/ml gel, Amersham Biosciences Corp, Piscataway, N.J.). Surface Plasmon Resonance (SPR). SPR sensorgrams were recorded on a BiaCore 3000 instrument (Biacore Inc, Piscataway, N.J.), employing a high-capacity LMWH surface created on a commercially available streptavidin-coated chip via treatment with biotinylated LMWH.
In SPR experiments, the interaction of the peptides with a LMWH-modified SA chip surface was determined under conditions described in the experimental section. […] In addition, no mass transport limitation or linked reactions were indicated. […] These faster association kinetics, relative to those reported for the ATIII and HIP (Table 2) (see also N. Yamaguchi, B. S. Chae, L. Zhang, K. L. Kiick, E. M. Furst, Rheological characterization of polysaccharide-poly (ethylene glycol) star copolymer hydrogels, Biomacromolecules 6 (4) (2005) 1931-1940) are the primary cause of the lower measured KD values for PF4ZIP-LMWH binding, and the trend of the dissociation constants is consistent with the chromatography results. […] Nevertheless, the equilibrium constants of dissociation determined via both methods are substantially lower than the concentrations employed during hydrogel formation experiments (see below).
The heparin-binding kinetics between LMWH and PF4ZIP were monitored via SPR at several temperatures between 5° C. and 37° C., to determine potential changes in binding kinetics that might alter hydrogel properties under physiological conditions.
In general terms: In SPR one partner is held on a chip, and binding of the other changes the refractive index at the surface.

Assay [4] is described as follows: Heparin-sepharose affinity chromatography (NaCl elution). Format: binding. To be noted: 25° C. Here is the method:
as §1
For heparin affinity chromatography experiments, HBPs were loaded onto a heparin-sepharose column, and then eluted with buffer of increasing NaCl concentration. The concentration of NaCl required for peptide elution is used as an indication of the affinity of the peptide for heparin. The elution of the peptides from the heparin-sepharose column required a salt concentration of 962±10 mM for the PF4ZIP peptide.

Where “and” joins values, the source holds several entries; their conditions need not be identical. Equal values may be shown once. Read-outs that look alike come from different tables or passages of the source. Square brackets hold non-standard residues; d marks the D form. Ends that are not written are not given here. βAla = NCCC(=O)O

Broadly, the Kd is the free concentration of one partner at which half of the binding sites on the other are occupied at equilibrium, for simple one-to-one binding.

Take “CKbAFAKLAARLYRKA (CK[βAla]FAKLAARLYRKA-NH2; N-terminus assumed; SMILES CC(C)C[C@H](NC(=O)[C@H](CCCCN)NC(=O)[C@H](C)NC(=O)[C@H](Cc1ccccc1)NC(=O)CCNC(=O)[C@H](CCCCN)NC(=O)[C@@H](N)CS)C(=O)N[C@@H](C)C(=O)N[C@@H](C)C(=O)N[C@@H](CCCNC(=N)N)C(=O)N[C@@H](CC(C)C)C(=O)N[C@@H](Cc1ccc(O)cc1)C(=O)N[C@@H](CCCNC(=N)N)C(=O)N[C@@H](CCCCN)C(=O)N[C@@H](C)C(N)=O; listed as Homo sapiens) [ATIII]”: in assay [1], the Kd was 12900 ± 1300 nM, the ka is 1.56 ± 0.06 × 10^2 M^−1s^−1 and the kd is 2.00 ± 0.3 × 10^−3 s^−1. The “Salt required for elution from heparin column” value (“Salt required for elution” for short) in assay [2] was 594 ± 2 mM.
As for CRPKAKAKAKAKDQTK [HIP], in assay [1], the Kd is 4200 ± 300 nM, the ka was 1.10 ± 0.08 × 10^3 M^−1s^−1 and the kd was 4.64 ± 0.02 × 10^−3 s^−1. Besides, the “Salt required for elution” value in assay [2] is 687 ± 1 mM.
For “CGGRMKQLEDKVKKLLKKNYHLENEVARLKKLVG [PF4ZIP]”, the ka in assay [3] (5 ° C.) is recorded as 1.56 ± 0.01 × 10^5 M^−1s^−1; in assay [3] (15 ° C.), 1.90 ± 0.04 × 10^5 M^−1s^−1; in assay [3] (25° C.), 2.24±0.05×10^5 M^−1s^−1; in assay [3] (25 ° C. (Table 3)) it was 2.24 ± 0.05 × 10^5 M^−1s^−1; in assay [3] (37 ° C.), 5.11 ± 0.02 × 10^5 M^−1s^−1. The kd in assay [3] (5 ° C.) was 3.74 ± 0.17 × 10^−3 s^−1; in assay [3] (15 ° C.) it was 1.67 ± 0.03 × 10^−3 s^−1; in assay [3] (25° C.) it was 2.56±0.10×10^−3 s^−1; in assay [3] (25 ° C. (Table 3)) it was 2.56 ± 0.10 × 10^−3 s^−1; in assay [3] (37 ° C.) it was 2.44 ± 0.08 × 10^−3 s^−1. Also, the equilibrium dissociation constant (Kd) in assay [3] (25° C.) was ~11.5 nM and 11.5 nM. The “Salt required for elution” value in assay [4] is 962 ± 10 mM.

These data come from patent US8367639B2, “Hydrogels with covalent and noncovalent crosslinks” (University of Delaware, priority 2005, dated 2013).
